Test results reported in the NIST ThermoML archive (doi:10.1021/je200836x).
Numbers after ± are expanded uncertainties.

Assay: mn = molality of the nth substance listed, in mol/kg
Settings: 101 kPa, Liquid; for molar conductivity: Alternating current cell with electrodes; for mass density: Vibrating tube method

Cc1ccc(C(=O)[O-])c(O)c1.[Na+] [sodium 2-hydroxy-4-methylbenzoate] + O
Settings	mass density, 298.15 K [kg/m3]	molar conductivity, 278.15 K [S·m2/mol]	molar conductivity, 283.15 K [S·m2/mol]	molar conductivity, 288.15 K [S·m2/mol]	molar conductivity, 293.15 K [S·m2/mol]	molar conductivity, 298.15 K [S·m2/mol]	molar conductivity, 303.15 K [S·m2/mol]	molar conductivity, 308.15 K [S·m2/mol]	molar conductivity, 313.15 K [S·m2/mol]
m1 = 0.0008766	–	0.004463 ± 2.7e-05	0.005159 ± 3.1e-05	0.005899 ± 3.5e-05	0.006679 ± 4e-05	0.007495 ± 4.5e-05	0.008345 ± 5e-05	0.009213 ± 5.5e-05	0.01012 ± 6.1e-05
m1 = 0.001205	–	0.004451 ± 2.7e-05	0.005145 ± 3.1e-05	0.00588 ± 3.5e-05	0.006648 ± 4e-05	0.007462 ± 4.5e-05	0.008308 ± 5e-05	0.009184 ± 5.5e-05	0.01008 ± 6.1e-05
m1 = 0.001572	–	0.004436 ± 2.7e-05	0.005122 ± 3.1e-05	0.005855 ± 3.5e-05	0.006629 ± 4e-05	0.007439 ± 4.5e-05	0.008283 ± 5e-05	0.009158 ± 5.5e-05	0.01005 ± 6e-05
m1 = 0.001976	–	0.004416 ± 2.7e-05	0.005105 ± 3.1e-05	0.005835 ± 3.5e-05	0.006608 ± 4e-05	0.007414 ± 4.4e-05	0.008258 ± 4.9e-05	0.009136 ± 5.5e-05	0.01003 ± 6e-05
m1 = 0.002453	–	0.004401 ± 2.6e-05	0.005087 ± 3e-05	0.005815 ± 3.5e-05	0.006584 ± 3.9e-05	0.007387 ± 4.4e-05	0.008225 ± 4.9e-05	0.009092 ± 5.5e-05	0.009964 ± 6e-05
m1 = 0.00301	–	0.004382 ± 2.6e-05	0.005065 ± 3e-05	0.00579 ± 3.5e-05	0.006555 ± 3.9e-05	0.007356 ± 4.4e-05	0.008178 ± 4.9e-05	0.009044 ± 5.4e-05	0.009933 ± 6e-05
m1 = 0.003696	–	0.004364 ± 2.6e-05	0.005044 ± 3e-05	0.005765 ± 3.5e-05	0.006518 ± 3.9e-05	0.007314 ± 4.4e-05	0.008146 ± 4.9e-05	0.009009 ± 5.4e-05	0.009892 ± 5.9e-05
m1 = 0.004538	–	0.004345 ± 2.6e-05	0.005022 ± 3e-05	0.005734 ± 3.4e-05	0.006493 ± 3.9e-05	0.007285 ± 4.4e-05	0.008112 ± 4.9e-05	0.008969 ± 5.4e-05	0.009844 ± 5.9e-05
m1 = 0.005464	997.441 ± 0.087	0.004332 ± 2.6e-05	0.004993 ± 3e-05	0.005707 ± 3.4e-05	0.006462 ± 3.9e-05	0.007251 ± 4.4e-05	0.008073 ± 4.8e-05	0.008927 ± 5.4e-05	0.009798 ± 5.9e-05
m1 = 0.09872	1004.12 ± 0.088	–	–	–	–	–	–	–	–

O=C([O-])c1ccccc1.[Na+] [sodium benzoate] + O
Settings	mass density, 298.15 K [kg/m3]	molar conductivity, 278.15 K [S·m2/mol]	molar conductivity, 283.15 K [S·m2/mol]	molar conductivity, 288.15 K [S·m2/mol]	molar conductivity, 293.15 K [S·m2/mol]	molar conductivity, 298.15 K [S·m2/mol]	molar conductivity, 303.15 K [S·m2/mol]	molar conductivity, 308.15 K [S·m2/mol]	molar conductivity, 313.15 K [S·m2/mol]
m1 = 0.0002136	–	0.004828 ± 2.9e-05	0.005584 ± 3.4e-05	0.006384 ± 3.8e-05	0.007233 ± 4.3e-05	0.00812 ± 4.9e-05	0.009043 ± 5.4e-05	0.01 ± 6e-05	0.01098 ± 6.6e-05
m1 = 0.0004649	–	0.00479 ± 2.9e-05	0.005542 ± 3.3e-05	0.006339 ± 3.8e-05	0.007182 ± 4.3e-05	0.008063 ± 4.8e-05	0.008982 ± 5.4e-05	0.009936 ± 6e-05	0.01091 ± 6.6e-05
m1 = 0.0007334	–	0.004765 ± 2.9e-05	0.005514 ± 3.3e-05	0.006308 ± 3.8e-05	0.007149 ± 4.3e-05	0.008027 ± 4.8e-05	0.00894 ± 5.4e-05	0.009881 ± 5.9e-05	0.01085 ± 6.5e-05
m1 = 0.0009986	–	0.004746 ± 2.9e-05	0.005493 ± 3.3e-05	0.006283 ± 3.8e-05	0.007122 ± 4.3e-05	0.007986 ± 4.8e-05	0.008891 ± 5.3e-05	0.009829 ± 5.9e-05	0.0108 ± 6.5e-05
m1 = 0.001299	–	0.00473 ± 2.8e-05	0.005474 ± 3.3e-05	0.006253 ± 3.7e-05	0.007089 ± 4.3e-05	0.007958 ± 4.8e-05	0.00886 ± 5.3e-05	0.009801 ± 5.9e-05	0.01078 ± 6.5e-05
m1 = 0.0016	–	0.004708 ± 2.8e-05	0.005448 ± 3.3e-05	0.006234 ± 3.7e-05	0.007064 ± 4.2e-05	0.007933 ± 4.8e-05	0.008837 ± 5.3e-05	0.00977 ± 5.9e-05	0.01073 ± 6.4e-05
m1 = 0.001996	–	0.00469 ± 2.8e-05	0.005428 ± 3.3e-05	0.006211 ± 3.7e-05	0.007037 ± 4.2e-05	0.007901 ± 4.7e-05	0.008801 ± 5.3e-05	0.009733 ± 5.8e-05	0.01071 ± 6.4e-05
m1 = 0.002488	–	0.004671 ± 2.8e-05	0.005407 ± 3.2e-05	0.00619 ± 3.7e-05	0.00701 ± 4.2e-05	0.007872 ± 4.7e-05	0.00877 ± 5.3e-05	0.009663 ± 5.8e-05	0.01063 ± 6.4e-05
m1 = 0.003107	–	0.004649 ± 2.8e-05	0.00538 ± 3.2e-05	0.006164 ± 3.7e-05	0.006978 ± 4.2e-05	0.007811 ± 4.7e-05	0.008706 ± 5.2e-05	0.009625 ± 5.8e-05	0.01059 ± 6.3e-05
m1 = 0.003832	–	0.004634 ± 2.8e-05	0.005362 ± 3.2e-05	0.006129 ± 3.7e-05	0.006945 ± 4.2e-05	0.007796 ± 4.7e-05	0.008683 ± 5.2e-05	0.009598 ± 5.8e-05	0.01055 ± 6.3e-05
m1 = 0.00495	997.26 ± 0.077	0.004604 ± 2.8e-05	0.00532 ± 3.2e-05	0.006084 ± 3.6e-05	0.006895 ± 4.1e-05	0.007742 ± 4.6e-05	0.008623 ± 5.2e-05	0.009539 ± 5.7e-05	0.01048 ± 6.3e-05
m1 = 0.08466	1001.94 ± 0.077	–	–	–	–	–	–	–	–

Cc1cccc(C(=O)O)c1[O-].[Na+] [sodium 2-hydroxy-3-methylbenzoate] + O
Settings	mass density, 298.15 K [kg/m3]	molar conductivity, 278.15 K [S·m2/mol]	molar conductivity, 283.15 K [S·m2/mol]	molar conductivity, 288.15 K [S·m2/mol]	molar conductivity, 293.15 K [S·m2/mol]	molar conductivity, 298.15 K [S·m2/mol]	molar conductivity, 303.15 K [S·m2/mol]	molar conductivity, 308.15 K [S·m2/mol]	molar conductivity, 313.15 K [S·m2/mol]
m1 = 0.0001789	–	0.004702 ± 2.8e-05	0.005436 ± 3.3e-05	0.006213 ± 3.7e-05	0.007035 ± 4.2e-05	0.007891 ± 4.7e-05	0.008781 ± 5.3e-05	0.009702 ± 5.8e-05	0.01065 ± 6.4e-05
m1 = 0.0004159	–	0.004659 ± 2.8e-05	0.005386 ± 3.2e-05	0.006159 ± 3.7e-05	0.006975 ± 4.2e-05	0.007824 ± 4.7e-05	0.008709 ± 5.2e-05	0.009625 ± 5.8e-05	0.01056 ± 6.3e-05
m1 = 0.0007115	–	0.004632 ± 2.8e-05	0.005354 ± 3.2e-05	0.006119 ± 3.7e-05	0.006928 ± 4.2e-05	0.007773 ± 4.7e-05	0.008653 ± 5.2e-05	0.009562 ± 5.7e-05	0.01049 ± 6.3e-05
m1 = 0.001003	–	0.004611 ± 2.8e-05	0.00533 ± 3.2e-05	0.006091 ± 3.6e-05	0.006896 ± 4.1e-05	0.007731 ± 4.6e-05	0.008606 ± 5.2e-05	0.009511 ± 5.7e-05	0.01044 ± 6.3e-05
m1 = 0.001322	–	0.004591 ± 2.8e-05	0.005306 ± 3.2e-05	0.00606 ± 3.6e-05	0.006862 ± 4.1e-05	0.007698 ± 4.6e-05	0.00857 ± 5.1e-05	0.00947 ± 5.7e-05	0.0104 ± 6.2e-05
m1 = 0.001698	–	0.004566 ± 2.7e-05	0.005277 ± 3.2e-05	0.006032 ± 3.6e-05	0.00683 ± 4.1e-05	0.007665 ± 4.6e-05	0.008535 ± 5.1e-05	0.009432 ± 5.7e-05	0.01036 ± 6.2e-05
m1 = 0.002088	–	0.004547 ± 2.7e-05	0.005256 ± 3.1e-05	0.006008 ± 3.6e-05	0.006803 ± 4.1e-05	0.007632 ± 4.6e-05	0.008498 ± 5.1e-05	0.009395 ± 5.6e-05	0.01031 ± 6.2e-05
m1 = 0.002646	–	0.004526 ± 2.7e-05	0.005232 ± 3.1e-05	0.005981 ± 3.6e-05	0.006772 ± 4.1e-05	0.007599 ± 4.6e-05	0.008457 ± 5.1e-05	0.009327 ± 5.6e-05	0.01024 ± 6.2e-05
m1 = 0.003288	–	0.004504 ± 2.7e-05	0.005206 ± 3.1e-05	0.005951 ± 3.6e-05	0.006738 ± 4e-05	0.007542 ± 4.5e-05	0.008399 ± 5e-05	0.009286 ± 5.6e-05	0.0102 ± 6.1e-05
m1 = 0.004113	–	0.004483 ± 2.7e-05	0.005178 ± 3.1e-05	0.005905 ± 3.5e-05	0.006688 ± 4e-05	0.007504 ± 4.5e-05	0.008356 ± 5e-05	0.00924 ± 5.5e-05	0.01015 ± 6.1e-05
m1 = 0.005007	997.408 ± 0.087	0.004457 ± 2.7e-05	0.00514 ± 3.1e-05	0.005873 ± 3.5e-05	0.00665 ± 4e-05	0.007462 ± 4.5e-05	0.008307 ± 5e-05	0.009184 ± 5.5e-05	0.01009 ± 6.1e-05
m1 = 0.09201	1003.59 ± 0.088	–	–	–	–	–	–	–	–
